Experimental data reported in ChEMBL document CHEMBL1201862, “PubChem BioAssay data set” (2004).
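The compound was tested at five concentrations on cells cultured in 96-well plates, with a 48-hour exposure period. Here, GI50 denotes the concentration required for 50% inhibition of growth.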 Active and inactive are the calls of the source. Cut-off read from the data, not from the text of the source: active = GI50 up to about 1.1 µM and inactive = higher.

Key:
Test in all cases: inhibition of tumour cell growth, NCI panel, 48 h
[1] = tested on: ACHN
[2] = tested on: A498
[3] = tested on: OVCAR-5
[4] = tested on: HT-29
[5] = tested on: HOP-62
[6] = tested on: Malme-3M
[7] = tested on: SK-MEL-2
[8] = tested on: K562
[9] = tested on: UACC-257
[10] = tested on: UO-31
[11] = tested on: SR
[12] = tested on: DU-145
[13] = tested on: NCI-H226
[14] = tested on: T47D
[15] = tested on: PC-3
[16] = tested on: A549
[17] = tested on: RXF 393
[18] = tested on: SF-295
[19] = tested on: NCI-H23
[20] = tested on: KM12

| SMILES | GI50 [1] | GI50 [2] | GI50 [3] | GI50 [4] | GI50 [5] | GI50 [6] | GI50 [7] | GI50 [8] | GI50 [9] | GI50 [10] | GI50 [11] | GI50 [12] | GI50 [13] | GI50 [14] | GI50 [15] | GI50 [16] | GI50 [17] | GI50 [18] | GI50 [19] | GI50 [20] |
| --- | --- | --- | --- | --- | --- | --- | --- | --- | --- | --- | --- | --- | --- | --- | --- | --- | --- | --- | --- | --- |
| O=C(CC1(O)C(=O)Nc2c(Cl)ccc(Cl)c21)c1ccco1 (stereo not given) | 20.5 µM (inactive) | 30.4 µM (inactive) | 20.9 µM (inactive) | 22.4 µM (inactive) | 29.6 µM (inactive) | 20 µM (inactive) | 26.1 µM (inactive) | > 10 µM (inactive) | 18 µM (inactive) | 35.8 µM (inactive) | 4.38 µM (inactive) | 40.3 µM (inactive) | 19.7 µM (inactive) | 35.6 µM (inactive) | 28.2 µM (inactive) | 23 µM (inactive) | 19.4 µM (inactive) | 20.1 µM (inactive) | 15.2 µM (inactive) | 27 µM (inactive) |
| CC(NC(=O)C1(N)CCCC1)C(=O)O (stereo not given) | > 100 µM (inactive) | > 100 µM (inactive) | > 100 µM (inactive) | > 100 µM (inactive) | > 100 µM (inactive) | > 100 µM (inactive) | > 100 µM (inactive) | > 100 µM (inactive) | > 100 µM (inactive) | > 100 µM (inactive) | > 100 µM (inactive) | > 100 µM (inactive) | > 100 µM (inactive) | > 100 µM (inactive) | > 100 µM (inactive) | > 100 µM (inactive) | > 100 µM (inactive) | > 100 µM (inactive) | > 100 µM (inactive) | > 100 µM (inactive) |
| CN1C=Cc2nccc3cc4c(c1c23)OCO4 | 1.56 µM (inactive) | 4 µM (inactive) | 6.61 µM (inactive) | 2 µM (inactive) | 1.82 µM (inactive) | 0.118 µM (active) | 3.18 µM (inactive) | 1.89 µM (inactive) | 2.53 µM (inactive) | 2.96 µM (inactive) | 0.495 µM (active) | 5.78 µM (inactive) | 2.83 µM (inactive) | 6.82 µM (inactive) | 3.21 µM (inactive) | 2.81 µM (inactive) | 0.879 µM (active) | 1.86 µM (inactive) | 2.1 µM (inactive) | 2.59 µM (inactive) |
| Cc1cn([C@@H]2O[C@H](CO)[C@@H](O)[C@@H]2O)c(=O)[nH]c1=O | > 1000 µM (inactive) | > 1000 µM (inactive) | > 1000 µM (inactive) | > 1000 µM (inactive) | > 1000 µM (inactive) | > 1000 µM (inactive) | > 1000 µM (inactive) | > 1000 µM (inactive) | > 1000 µM (inactive) | > 1000 µM (inactive) | > 1000 µM (inactive) | > 1000 µM (inactive) | > 1000 µM (inactive) | > 1000 µM (inactive) | > 1000 µM (inactive) | > 1000 µM (inactive) | > 1000 µM (inactive) | > 1000 µM (inactive) | > 1000 µM (inactive) | > 1000 µM (inactive) |
| COC1=C(C)C(=O)c2c(c(COC(N)=O)c3n2CC(OC(C)=O)C3OC(C)=O)C1=O (stereo not given) | < 0.01 µM (active) | 0.593 µM (active) | 0.267 µM (active) | 0.036 µM (active) | 0.126 µM (active) | 0.0493 µM (active) | 0.191 µM (active) | 0.0191 µM (active) | 0.115 µM (active) | 0.15 µM (active) | < 0.01 µM (active) | 0.0251 µM (active) | 0.297 µM (active) | 0.757 µM (active) | 0.131 µM (active) | 0.136 µM (active) | 0.152 µM (active) | 0.0631 µM (active) | 0.0436 µM (active) | 0.228 µM (active) |
| C[n+]1c2ccccc2n2c3ccccc3c(NCCCN3CCOCC3)c(C#N)c21 | 2.61 µM (inactive) | 8.87 µM (inactive) | 1.44 µM (inactive) | 2.37 µM (inactive) | 1.27 µM (inactive) | 2.05 µM (inactive) | 1.91 µM (inactive) | 1.73 µM (inactive) | 2.99 µM (inactive) | 2.95 µM (inactive) | 2.81 µM (inactive) | 2.13 µM (inactive) | 1.86 µM (inactive) | 2.32 µM (inactive) | 1.31 µM (inactive) | 3.33 µM (inactive) | 1.37 µM (inactive) | 2.8 µM (inactive) | 1.29 µM (inactive) | 1.61 µM (inactive) |
| O=[N+]([O-])c1cc2oc(CSc3ccccc3)nc2cc1Cl | 59.7 µM (inactive) | 25.5 µM (inactive) | 31.3 µM (inactive) | 28.1 µM (inactive) | 41.7 µM (inactive) | 50 µM (inactive) | 26 µM (inactive) | 36.2 µM (inactive) | 28.6 µM (inactive) | 35.9 µM (inactive) | 33.3 µM (inactive) | 37.7 µM (inactive) | 29.6 µM (inactive) | 24.9 µM (inactive) | 48 µM (inactive) | 36.9 µM (inactive) | 26.4 µM (inactive) | 28.2 µM (inactive) | 26.7 µM (inactive) | 32 µM (inactive) |
| Cc1ccc(OCC2OC(n3cnc4c(Cl)nc(N)nc43)CC2Oc2ccc(C)cc2)cc1 (stereo not given) | 15.6 µM (inactive) | > 75 µM (inactive) | 34.3 µM (inactive) | 46.1 µM (inactive) | > 36.1 µM (inactive) | 24.5 µM (inactive) | > 38.1 µM (inactive) | 29.4 µM (inactive) | 63.7 µM (inactive) | 4.58 µM (inactive) | 36 µM (inactive) | 40.8 µM (inactive) | > 43.5 µM (inactive) | 20.3 µM (inactive) | 35.4 µM (inactive) | 6.73 µM (inactive) | 39.9 µM (inactive) | 15.2 µM (inactive) | 19.2 µM (inactive) | > 51.8 µM (inactive) |
| CCOc1ccc2c(C)cc(=O)oc2c1 | > 100 µM (inactive) | > 100 µM (inactive) | > 100 µM (inactive) | > 100 µM (inactive) | > 100 µM (inactive) | > 100 µM (inactive) | > 100 µM (inactive) | > 100 µM (inactive) | > 100 µM (inactive) | > 100 µM (inactive) | > 100 µM (inactive) | > 100 µM (inactive) | > 100 µM (inactive) | > 100 µM (inactive) | > 100 µM (inactive) | > 100 µM (inactive) | > 100 µM (inactive) | > 100 µM (inactive) | > 100 µM (inactive) | > 100 µM (inactive) |
| CC(C)(C)OC(=O)c1ccc(NCc2cc(O)ccc2O)cc1 | 1.73 µM (inactive) | 9.68 µM (inactive) | 6.58 µM (inactive) | 13.5 µM (inactive) | 8.97 µM (inactive) | 1.85 µM (inactive) | 4.34 µM (inactive) | 2.03 µM (inactive) | 3.78 µM (inactive) | 1.22 µM (inactive) | 0.916 µM (active) | 7.78 µM (inactive) | 2.22 µM (inactive) | 1.61 µM (inactive) | 1.5 µM (inactive) | 7.4 µM (inactive) | 1.36 µM (inactive) | 7.41 µM (inactive) | 4.93 µM (inactive) | 2.93 µM (inactive) |
| NC(=O)NC(=O)c1cccc(C(=O)NC(N)=O)n1 | > 100 µM (inactive) | > 100 µM (inactive) | > 100 µM (inactive) | > 100 µM (inactive) | > 100 µM (inactive) | > 100 µM (inactive) | > 100 µM (inactive) | > 100 µM (inactive) | > 100 µM (inactive) | > 100 µM (inactive) | > 100 µM (inactive) | > 100 µM (inactive) | > 100 µM (inactive) | > 100 µM (inactive) | > 100 µM (inactive) | > 100 µM (inactive) | > 100 µM (inactive) | > 100 µM (inactive) | > 100 µM (inactive) | > 100 µM (inactive) |
| N=C(N)N/N=C/c1c(-c2cc([N+](=O)[O-])c(Cl)cc2Cl)nc2n1CCS2 | 22.4 µM (inactive) | 77.3 µM (inactive) | 79.3 µM (inactive) | 7.08 µM (inactive) | 42.4 µM (inactive) | 24.5 µM (inactive) | 3.13 µM (inactive) | 2.88 µM (inactive) | 20.7 µM (inactive) | 18.2 µM (inactive) | 0.951 µM (active) | 27.6 µM (inactive) | 34.4 µM (inactive) | 2.47 µM (inactive) | 13.2 µM (inactive) | 32.7 µM (inactive) | 41.5 µM (inactive) | 25.6 µM (inactive) | 5.33 µM (inactive) | 4.83 µM (inactive) |
| CCOC(=O)C1=C(N2CCCC2)NC(=O)CC1=O | > 100 µM (inactive) | > 100 µM (inactive) | > 100 µM (inactive) | > 100 µM (inactive) | > 100 µM (inactive) | > 100 µM (inactive) | > 100 µM (inactive) | > 100 µM (inactive) | > 100 µM (inactive) | > 100 µM (inactive) | > 100 µM (inactive) | > 100 µM (inactive) | > 100 µM (inactive) | 63 µM (inactive) | > 100 µM (inactive) | > 100 µM (inactive) | > 100 µM (inactive) | > 100 µM (inactive) | > 100 µM (inactive) | > 100 µM (inactive) |
| CC(C)C(OC(=O)c1ccc(NCC2=CC(=O)C=CC2=O)cc1)C(C)C | 9.1 µM (inactive) | 9.12 µM (inactive) | 13.3 µM (inactive) | 10.7 µM (inactive) | 18.3 µM (inactive) | 8.89 µM (inactive) | 11.6 µM (inactive) | 3.66 µM (inactive) | 7.76 µM (inactive) | 1.82 µM (inactive) | 3.23 µM (inactive) | 18.4 µM (inactive) | 4.24 µM (inactive) | 2.1 µM (inactive) | 8.09 µM (inactive) | 25.2 µM (inactive) | 1.82 µM (inactive) | 13.2 µM (inactive) | 5.05 µM (inactive) | 11.5 µM (inactive) |
